Several values for one entry are separate records, joined by “and”; a condition that tells them apart may be missing. Equal entries are not always repeated.
Key:
[1] = Stability of dosing solution at room temperature; type: physicochemical
Description: Compound B was administered as the lactate salt by intraveneous or intraperitoneal injection. The lactic salt of Compound B was formulated in isotonic D5W (5% Dextrose; B. Braun, Lot 395147) at a concentration of 1.5 mg/ml, 1 mg/ml and 0.5 mg/ml, respectively. The solution was stable for up to 10 days at room temperature. Treatment was given 3 times a week at a volume of 10 ml/kg. The final equivalent free-base doses were respectively 11.90, 7.94 and 3.97 mg/kg. In the figures, these doses are reported as whole values.
The mono-phosphate salt of Compound A was formulated in 0.5% HPMC (Pharmacoat 603, Dow Chemical Plaqueline, USA) at a concentration of 7.9 mg/ml. Solution was stable at room temperature for 4 days. Treatment was given bid at a volume of 10 ml/kg. The final equivalent free-base dose was 60 mg/kg.

[2] = Body weight change in JAK2V617F bone marrow transplant model; conditions: sacrifice day after 21 days; Compound B 8 mg/kg ip 3 times a week, Compound A 60 mg/kg po q12h, or Combo of both
Description: Animals were monitored daily and sacrificed in case of major signs of distress (excessive body weight loss over more than 2 consecutive days without improvement, combined with lethargy and piloerection).
Results shown in the figures and tables represent means±SEM. Percentage change in body weights and absolute values or transformed values (log10, or other as specified) for spleen weights, reticulocyte, WBC counts, Hct and histological data were analyzed by unpaired t-test or Rank-Sum test to compare a single treatment group to vehicle group or one way ANOVA followed by Dunnett's test to compare treatment groups to vehicle group. Multiple comparisons were done using the Tukey's test. All comparisons were done on sacrifice day. The significance level was set to p<0.05. Calculations were performed using GraphPad Prism for Windows (GraphPad Software Inc.).
Mice were randomized on day 27 post BMT based on Hct values (67% in average in this experiment, N=9/group) and treated with Compound B (8 mg/kg, 3×/week MWF, i.p.) and Compound A (60 mg/kg, q12h, p.o.) as single agents or combined.

[3] = test system: JAK2V617F bone marrow transduced cells; assay: Histology of bone marrow and spleen (cellularity, splenic architecture, reticulin fibrosis) in JAK2V617F bone marrow transplant model; type: in vivo, mouse; conditions: 21 days; for Bone marrow hypercellularity / Splenic architecture: Compound B 8 mg/kg, Compound A 60 mg/kg or both; for Bone marrow hypercellularity: rank Combo>Compound A=Compound B; for Splenic architecture: rank Combo>Compound A>Compound B
Text: and spleens were collected, fixed in formalin, trimmed, embedded in paraffin and sectioned at (nominally) 4 μm using a microtome. […] Briefly, the spleen was removed in total, weighed and placed on a dissection tray. The spleen was cut transverse in two halves and two equal pieces were taken from the middle parts using a scalpel. […] Baker, Medite, Switzerland). Fixative volume was at least tenfold in excess compared to tissue volume. […] After a last wash in PBS, the tissues were cut up and set with the surface of interest downwards in a universal histocassette followed by processing in a TPC 15Duo (Tissue Processing Center) for paraffinization. From each tissue paraffin block, several 3 μm thick sections were cut on a sliding or rotary microtome (Mikrom International AG, Switzerland), spread in a 45° C. water-bath, mounted on microscope slides (Polysine, VWR International, Leuven, Belgium), and air-dried in an oven at 37° C. overnight. Dry tissue section slides were taken out of the oven and placed in the slide rack of the linear stainer COT20 (Medite, Switzerland) for fully automated H&E (Haematoxylin &Eosin) staining or processed for immunohistochemistry (IHC) staining. For IHC, tissue section samples were stained with rabbit anti-phospho STAT5 antibody (clone C11C5), and rabbit anti-acetyl Histone H3 antibody (Millipore, MA, USA) coverslipped and air-dried. […] Splenic architecture was evaluated as destroyed (1+) or preserved (0). Presence of myeloid, erythroid and adipocytes cells was evaluated as 0, 1+, 2+, 3+ based on cellularity. […] Whole slide automated quantitative assessment of p-STAT5-positive and -negative cell nuclei were performed using Definiens eCognition software (eCognition version XD 1.5, Definiens AG, Germany). The results were expressed as percent of positive p-STAT5 nuclei out of total nuclei.

Acetylated Histone H3 = assay: PD marker acetylated histone H3 by IHC in spleen and bone marrow; type: in vivo, mouse; conditions: Compound B 8 mg/kg alone or with Compound A 60 mg/kg
Text: Briefly, the spleen was removed in total, weighed and placed on a dissection tray. The spleen was cut transverse in two halves and two equal pieces were taken from the middle parts using a scalpel. […] Baker, Medite, Switzerland). Fixative volume was at least tenfold in excess compared to tissue volume. […] After a last wash in PBS, the tissues were cut up and set with the surface of interest downwards in a universal histocassette followed by processing in a TPC 15Duo (Tissue Processing Center) for paraffinization. From each tissue paraffin block, several 3 μm thick sections were cut on a sliding or rotary microtome (Mikrom International AG, Switzerland), spread in a 45° C. water-bath, mounted on microscope slides (Polysine, VWR International, Leuven, Belgium), and air-dried in an oven at 37° C. overnight. […] Splenic architecture was evaluated as destroyed (1+) or preserved (0). Presence of myeloid, erythroid and adipocytes cells was evaluated as 0, 1+, 2+, 3+ based on cellularity. […] Whole slide automated quantitative assessment of p-STAT5-positive and -negative cell nuclei were performed using Definiens eCognition software (eCognition version XD 1.5, Definiens AG, Germany). The results were expressed as percent of positive p-STAT5 nuclei out of total nuclei.

Structure (SMILES)	Stability of solution at room temperature ([1]; mono-phosphate salt in 0.5% HPMC, 7.9 mg/ml) [days]	BW change (%) (mean ± SEM) [2]	Fibrosis score (reticulin staining on sternum sections) ([3]; Compound A 60 mg/kg or combination with Compound B 8 mg/kg, high variability)	Bone marrow hypercellularity [3]	Splenic architecture [3]	Stability of solution at room temperature ([1]; lactic salt in isotonic D5W (5% Dextrose), 0.5-1.5 mg/ml)	Acetylated histone H3 (IHC), surrogate readout for deacetylase inhibition (Acetylated Histone H3)
N#CC[C@H](C1CCCC1)n1cc(-c2ncnc3[nH]ccc23)cn1 [Compound A, (R)-3-(4-(7H-pyrrolo[2,3-d]pyrimidin-4-yl)-1H-pyrazol-1-yl)-3-cyclopentylpropanenitrile]	4	0.45%	tendency to reduce	decrease	improved	–	–
Cc1[nH]c2ccccc2c1CCNCc1ccc(/C=C/C(=O)NO)cc1 [Compound B, N-hydroxy-3-[4-[[[2-(2-methyl-1H-indol-3-yl)-ethyl]-amino]methyl]phenyl]-2E-2-propenamide]	–	−5% and −4.57%	–	decrease	improved	up to 10 days	clear increase
